Measured values published in patent US20110021565A1, “PIPERIDINE DERIVATIVES AS NK3 ANTAGONISTS” (priority 2007, published 2011).
Where a name gives a salt, the structure may show the parent alone. Read-outs that look alike come from different tables or passages of the source.

Molecular target: T1, recombinant human NK3 receptor (Homo sapiens, UniProt P29371)
T1 construct: expressed in transfected cells; host or cells: HEK293 cells, transient expression; membrane preparation
T1 sequence (P29371 1-465): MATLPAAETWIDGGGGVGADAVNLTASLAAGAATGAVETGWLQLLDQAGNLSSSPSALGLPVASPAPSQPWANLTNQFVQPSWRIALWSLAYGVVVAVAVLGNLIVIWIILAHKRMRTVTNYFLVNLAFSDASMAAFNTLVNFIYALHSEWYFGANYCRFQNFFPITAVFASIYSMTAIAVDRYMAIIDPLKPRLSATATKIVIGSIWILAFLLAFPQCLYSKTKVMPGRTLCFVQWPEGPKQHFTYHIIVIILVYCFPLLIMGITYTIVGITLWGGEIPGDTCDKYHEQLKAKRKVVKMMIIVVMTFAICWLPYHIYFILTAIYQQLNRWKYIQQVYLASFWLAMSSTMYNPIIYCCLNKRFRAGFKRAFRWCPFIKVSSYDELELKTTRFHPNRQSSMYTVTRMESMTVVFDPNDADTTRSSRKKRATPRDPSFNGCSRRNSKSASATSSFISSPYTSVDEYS
Experiment: [3H]SR142801 competition binding assay
Method: [^3H]SR142801 Competition Binding Assay
hNK3 receptor binding experiment were performed using [^3H]SR142801 (Catalog No. TRK1035, specific activity: 74.0 Ci/mmol, Amersham, GE Healthcare UK limited, Buckinghamshire, UK) and membrane isolated from HEK293 cells transiently expressing recombinant human NK3 receptor. After thawing, the membrane homogenates were centrifuged at 48,000×g for 10 min at 4° C., the pellets were resuspended in the 50 mM Tris-HCl, 4 mM MnCl2, 1 μM phosphoramidon, 0.1% BSA binding buffer at pH 7.4 to a final assay concentration of 5 μg protein/well. For inhibition experiments, membranes were incubated with [^3H]SR142801 at a concentration equal to KD value of radioligand and 10 concentrations of the inhibitory compound (0.0003-10 μM) (in a total reaction volume of 500 μl) for 75 min at room temperature (RT). At the end of the incubation, membranes were filtered onto unitfilter (96-well white microplate with bonded GF/C filter preincubated 1 h in 0.3% PEI+0.3% BSA, Packard BioScience, Meriden, Conn.) with a Filtermate 196 harvester (Packard BioScience) and washed 4 times with ice-cold 50 mM Tris-HCl, pH 7.4 buffer. Nonspecific binding was measured in the presence of 10 μM SB222200 for both radioligands. The radioactivity on the filter was counted (5 min) on a Packard Top-count microplate scintillation counter with quenching correction after addition of 45 μl of microscint 40 (Canberra Packard S. A., Zurich, Switzerland) and shaking for 1 h. Inhibition curves were fitted according to the Hill equation: y=100/(1+(x/IC50)^nH), where nH=slope factor using Excel-fit 4 software ([…]). IC50 values were derived from the inhibition curve and the affinity constant (IQ values were calculated using the Cheng-Prussoff equation Ki=IC50/(1+[L]/KD) where [L] is the concentration of radioligand and KD is its dissociation constant at the receptor, derived from the saturation isotherm. All experiments were performed in duplicate and the mean±standard error (SEM) of the individual Ki values was calculated.

[1] = [3H]SR142801, membranes of HEK293 cells transiently expressing recombinant human NK3 receptor, read-out: hNK3 Ki
[2] = representative compounds, [3H]SR142801, HEK293 membranes, human NK3 receptor, read-out: Ki NK3 h

Compound | Ki [1] | Ki [2]
CN(Cc1ccc(F)c(C(F)(F)F)c1)C(=O)C(C)(CCN1CCC(N2CCCC2=O)CC1)c1ccc(Cl)c(Cl)c1 (single isomer, unassigned) [Example 119, (R or S)-2-(3,4-Dichloro-phenyl)-N-(4-fluoro-3-trifluoromethyl-benzyl)-2,N-dimethyl-4-[4-(2-oxo-pyrrolidin-1-yl)-piperidin-1-yl]-butyramide; hydrochloride] | 0.8 nM | 0.8 nM
CC(=O)N(C)C1CCN(CCC(C)(C(=O)N(C)Cc2ccc(F)c(C(F)(F)F)c2)c2ccc(Cl)c(Cl)c2)CC1 (single isomer, unassigned) [Example 121, (S or R)-4-[4-(Acetyl-methyl-amino)-piperidin-1-yl]-2-(3,4-dichloro-phenyl)-N-(4-fluoro-3-trifluoromethyl-benzyl)-2,N-dimethyl-butyramide] | 173 nM | 
CC(=O)N(C)C1CCN(CCC(C)(C(=O)N(C)Cc2ccc(F)c(C(F)(F)F)c2)c2ccc(Cl)c(Cl)c2)CC1 (single isomer, unassigned) [Example 122, (R or S)-4-[4-(Acetyl-methyl-amino)-piperidin-1-yl]-2-(3,4-dichloro-phenyl)-N-(4-fluoro-3-trifluoromethyl-benzyl)-2,N-dimethyl-butyramide] | 1.5 nM | 1.5 nM
CN(Cc1ccc(C(F)(F)F)c(F)c1)C(=O)C(C)(CCN1CCC(NS(C)(=O)=O)CC1)c1ccc(Cl)c(Cl)c1 (single isomer, unassigned) [Example 124, (R or S)-2-(3,4-Dichloro-phenyl)-N-(3-fluoro-4-trifluoromethyl-benzyl)-4-(4-methanesulfonylamino-piperidin-1-yl)-2,N-dimethyl-butyramide] | 18.8 nM | 
CC(CCN1CCC(N2CCCC2=O)CC1)(C(=O)N[C@@H](CO)c1ccc(F)cc1)c1ccc(Cl)c(Cl)c1 (single isomer, unassigned) [Example 129, 2-(3,4-Dichloro-phenyl)-N-[(R)-1-(4-fluoro-phenyl)-2-hydroxy-ethyl]-2-(R or S) methyl-4-[4-(2-oxo-pyrrolidin-1-yl)-piperidin-1-yl]-butyramide] | 8.2 nM | 8.2 nM
COCCN(C(C)=O)C1CCN(CCC(C)(C(=O)N[C@@H](CO)c2ccc(F)cc2)c2ccc(Cl)c(Cl)c2)CC1 (single isomer, unassigned) [Example 150, 4-{4-[Acetyl-(2-methoxy-ethyl)-amino]-piperidin-1-yl}-2-(3,4-dichloro-phenyl)-N-[(R)-1-(4-fluoro-phenyl)-2-hydroxy-ethyl]-2-(R or S) methyl-butyramide] | 1.7 nM | 1.7 nM
CCN(C1CCN(CCC(C)(C(=O)N[C@@H](CO)c2ccc(Cl)c(Cl)c2)c2ccc(Cl)c(Cl)c2)CC1)S(C)(=O)=O (single isomer, unassigned; diastereoisomer 1) [Example 79, 2-(3,4-Dichloro-phenyl)-N-[1-(3,4-dichloro-phenyl)-2-hydroxy-ethyl]-4-[4-(ethyl-methanesulfonyl-amino)-piperidin-1-yl]-2-methyl-butyramide; diastereoisomer 1] | 1.5 nM | 1.5 nM
CC(CCN1CCC(N2CCCC2=O)CC1)(C(=O)N[C@@H](CO)c1ccc(Cl)c(Cl)c1)c1ccc(Cl)c(Cl)c1 (single isomer, unassigned; diastereoisomer 1) [Example 94, 2-(3,4-Dichloro-phenyl)-N-[-1-(3,4-dichloro-phenyl)-2-hydroxy-ethyl]-2-methyl-4-[4-(2-oxo-pyrrolidin-1-yl)-piperidin-1-yl]-butyramide; diastereoisomer 1] | 3 nM | 3 nM

Further compounds by falling Ki [1], results first:

Ki [1] | Ki [2] | Compound
800 nM |  | CN(Cc1ccc(C(F)(F)F)c(F)c1)C(=O)C(C)(CCN1CCC(NS(C)(=O)=O)CC1)c1ccc(Cl)c(Cl)c1 (single isomer, unassigned) [Example 123, (S or R)-2-(3,4-Dichloro-phenyl)-N-(3-fluoro-4-trifluoromethyl-benzyl)-4-(4-methanesulfonylamino-piperidin-1-yl)-2,N-dimethyl-butyramide]
171 nM |  | CN(Cc1ccc(F)c(C(F)(F)F)c1)C(=O)C(C)(CCN1CCC(N2CCCC2=O)CC1)c1ccc(Cl)c(Cl)c1 (single isomer, unassigned) [Example 118, (S or R)-2-(3,4-Dichloro-phenyl)-N-(4-fluoro-3-trifluoromethyl-benzyl)-2,N-dimethyl-4-[4-(2-oxo-pyrrolidin-1-yl)-piperidin-1-yl]-butyramide; hydrochloride]
101 nM |  | CC(CCN1CCC(N2CCCC2=O)CC1)(C(=O)N[C@@H](CO)c1ccc(F)cc1)c1ccc(Cl)c(Cl)c1 (single isomer, unassigned) [Example 130, 2-(3,4-Dichloro-phenyl)-N-[(R)-1-(4-fluoro-phenyl)-2-hydroxy-ethyl]-2-(S or R) methyl-4-[4-(2-oxo-pyrrolidin-1-yl)-piperidin-1-yl]-butyramide]
33.3 nM |  | CC(=O)N(C1CC1)C1CCN(CCC(C)(C(=O)N[C@@H](CO)c2ccc(F)cc2)c2ccc(Cl)c(Cl)c2)CC1 (single isomer, unassigned; diastereoisomer 1) [Example 140, 4-[4-(Acetyl-cyclopropyl-amino)-piperidin-1-yl]-2-(3,4-dichloro-phenyl)-N-[1-(4-fluoro-phenyl)-2-hydroxy-ethyl]-2-methyl-butyramide (diastereoisomer 1)]
29.3 nM |  | CC(=O)N(C)C1CCN(CCC(C)(C(=O)NC(CO)c2ccc(F)cc2)c2ccc(Cl)c(Cl)c2)CC1 (single isomer, unassigned; diastereoisomer 1) [Example 138, 4-[4-(Acetyl-methyl-amino)-piperidin-1-yl]-2-(3,4-dichloro-phenyl)-N-[1-(4-fluoro-phenyl)-2-hydroxy-ethyl]-2-methyl-butyramide (diastereoisomer 1)]
21.1 nM |  | COCCN(C(C)=O)C1CCN(CCC(C)(C(=O)N[C@@H](CO)c2ccc(F)cc2)c2ccc(Cl)c(Cl)c2)CC1 (single isomer, unassigned) [Example 151, 4-{4-[Acetyl-(2-methoxy-ethyl)-amino]-piperidin-1-yl}-2-(3,4-dichloro-phenyl)-N-[(R)-1-(4-fluoro-phenyl)-2-hydroxy-ethyl]-2-(S or R) methyl-butyramide]
5.6 nM | 5.6 nM | CC(=O)N(C)C1CCN(CCC(C)(C(=O)N[C@@H](CO)c2ccc(Cl)c(Cl)c2)c2ccc(Cl)c(Cl)c2)CC1 (single isomer, unassigned; diastereoisomer 1) [Example 109, 4-[4-(Acetyl-methyl-amino)-piperidin-1-yl]-2-(3,4-dichloro-phenyl)-N-[1-(3,4-dichloro-phenyl)-2-hydroxy-ethyl]-2-methyl-butyramide; diastereoisomer 1]
5.5 nM | 5.5 nM | CN(C1CCN(CCC(C)(C(=O)N[C@@H](CO)c2ccc(Cl)c(Cl)c2)c2ccc(Cl)c(Cl)c2)CC1)S(C)(=O)=O (single isomer, unassigned; diastereoisomer 1) [Example 49, 2-(3,4-Dichloro-phenyl)-N-[1-(3,4-dichloro-phenyl)-2-hydroxy-ethyl]-4-[4-(methanesulfonyl-methyl-amino)-piperidin-1-yl]-2-methyl-butyramide; diastereoisomer 1]
2 nM | 2 nM | C[C@](CCN1CCC(N2CCCC2=O)CC1)(C(=O)N[C@H](CO)c1ccc(Cl)c(Cl)c1)c1ccc(Cl)c(Cl)c1 (single isomer, unassigned) [Example 120, (R or S)-2-(3,4-Dichloro-phenyl)-N-[(S or R)-1-(3,4-dichloro-phenyl)-2-hydroxy-ethyl]-2-methyl-4-[4-(2-oxo-pyrrolidin-1-yl)-piperidin-1-yl]-butyramide]
